According to US12636366B2, “Ruthenium (II) complexes and conjugates thereof for use as photosensitizer agent in photodynamic therapy” (Paris Sciences et Lettres, priority 2019, dated 2026):
Like-named read-outs stand apart in the source and are kept apart here.

Columns and labels:
[1] = tested on: human cervical carcinoma cells (HeLa); assay: Dark and light cytotoxicity, resazurin cell viability assay, HeLa; type: cell-based; details: for PI (IC50 in the dark/IC50 upon light irradiation): 480 nm
Protocol: (§1) HeLa and CT-26 cell lines were cultured in DMEM media (Gibco, Life Technologies, USA) supplemented with 10% of fetal calf serum (Gibco). U87 and U373 cell lines were cultured in MEM media with addition of 1% of MEM NEAA (non-essential aminoacids) (Gibco) and 10% of fetal calf serum. RPE-1 cells were cultured in DMEM/F-12 (Gibco) supplemented with 10% of fetal calf serum. RPE-1 stable cells lines were cultured as RPE-1 cells with addition of geneticin (0.5 mg/ml) (Gibco). All cell lines were complemented with 100 U/ml penicillin-streptomycin mixture (Gibco), and maintained in humidified atmosphere at 37° C. and 5% of CO2.
(§2) Dark and light cytotoxicity of the Ru(II) complexes was assessed by fluorometric cell viability assay using resazurin (ACROS Organics). For dark and light cytotoxicity, cells were seeded in triplicates in 96 well plates at a density of 4000 cells per well in 100 μl, 24 h prior to treatment. The medium was then replaced with increasing concentration of the tested complexes and cells were incubated for 4 h. Medium was then replaced for fresh complete medium. Cells used for light cytotoxicity experiment were exposed to: 480 nm light for 10 min, 510 nm for 40 min, 540 for 60 min or 595 nm for 120 min in a 96-well plate using a LUMOS-BIO photoreactor (Atlas Photonics). Each well was individually illuminated with a LED at constant current. After irradiation cells were kept for another 44 h in the incubator and the medium was replaced by fresh complete medium containing resazurin (0.2 mg ml^−1 final concentration). After 4 h incubation at 37° C., the fluorescence signal of the resorufin product was read by SpectraMax M5 microplate reader (ex: 540 nm em: 590 nm). IC50 values were calculated using GraphPad Prism software.
(§3) The potential of the complexes to act as PDT PSs was determined on mouse colon carcinoma cells (CT-26), human glioblastoma cells (U87 and U373), human cervical carcinoma cells (HeLa) as well as non-cancerous retina pigmented epithelial cell line (RPE-1) according to the method described above. […] Ideally, a PDT PS should be non-toxic in the dark and highly toxic upon light activation. […] The toxicity of the compounds upon light irradiation (480 nm, 10 min, 3.21 J cm^−2) was then investigated.

[2] = Singlet oxygen measurement, direct evaluation (1O2 luminescence at 1270 nm); type: physicochemical; details: direct method, excitation at 450 nm; for Singlet oxygen quantum yield Φ(1O2), CH3CN Direct / Singlet oxygen quantum yield Φ(1O2), D2O Direct: average of three, +-10%
Protocol: The samples were prepared in an air saturated CH3CN or D2O solution with an absorbance of 0.2 at 450 nm. This solution was irradiated in fluorescence quartz cuvettes (width 1 cm) using a mounted M450LP1 LED (Thorlabs) whose irradiation, centered at 450 nm, has been focused with aspheric condenser lenses. The intensity of the irradiation has been varied using a T-Cube LED Driver (Thorlabs) and measured with an optical power and energy meter. The emission signal was focused and collected at right angle to the excitation pathway and directed to a Princeton Instruments Acton SP-2300i monochromator equipped with 600 g/mm grating blazed at 1200 nm. A longpass glass filter was placed in front of the monochromator entrance slit to cut off light at wavelengths shorter than 850 nm. The slits for detection were fully open. As a detector an EO-817L IR-sensitive liquid nitrogen cooled germanium diode detector (North Coast Scientific Corp.) has been used. The singlet oxygen luminesce at 1270 nm was measured by recording spectra from 1100 to 1400 nm. For the data analysis, the singlet oxygen luminescence peaks at different irradiation intensities were integrated. The resulting areas were plotted against the percentage of the irradiation intensity and the slope of the linear regression calculated. The absorbance of the sample was corrected with an absorbance correction factor. As reference for the measurement in an CH3CN solution phenalenone (Φphenaleone=0.95)^33 and for the measurement in a D2O solution [Ru(bipy)3]Cl2 (ΦRu(bipy)3C12=0.22)^31 was used and the singlet oxygen quantum yields were calculated using the following formula: […]
(§4) Additionally, the DFT calculations were able to characterize the lowest energy absorption band as a MLCT transition with a triplet state. With this in hand, a quantitative evaluation of singlet oxygen (^1O2) was performed to assess the potential of the PSs in PDT, by two methods: 1) direct by measurement of the luminescence of ^1O2, 2) indirect by measurement of the variation in absorbance of a reporter molecule, as described above. In the first method, the efficiency of the production of ^1O2 was assessed by measuring its phosphorescence at 1270 nm. Worthy of note, the possibility of detection in this experiment is affected by its environment as well as the used setup. With the setup used in this study, we could only detect Φ(^1O2) larger than 0.20 based on a low peak-to-noise ratio. In the second method (indirect method), ^1O2 is reacting with imidazole (in CH3CN) and histidine (in PBS buffer) to a trans-annular peroxide adduct. This can further quench the absorbance of the reporter molecule p-nitrosodimethyl aniline (RNO), which has been monitored by UV/VIS spectroscopy. In both methods, the ^1O2 production has been compared with a reference molecule, namely a solution of phenalenone in CH3CN (Φ(^1O2)phenaleone=0.95)^33 and a solution of [Ru(bipy)3]Cl2 in water Φ(^1O2)Ru(bipy)3Cl2=0.22)^31. […] In comparison, the values changed drastically in an aqueous solution. […] They have untypically low Φ(^1O2) values in CH3CN (0.22-0.35) for Ru(II) polypyridyl complexes. Subsequently, the ^1O2 production was also quite low in an aqueous environment.

[3] = tested on: non-cancerous retina pigmented epithelial cell line (RPE-1); assay: Dark and light cytotoxicity, resazurin cell viability assay, RPE-1; type: cell-based; details: for PI (IC50 in the dark/IC50 upon light irradiation): RPE-1, 480 nm
Protocol: as §1, §2, §3

[4] = Singlet oxygen measurement, indirect evaluation (RNO reporter absorbance); type: physicochemical; details: indirect method, excitation at 450 nm, average of three, +-10%
Protocol: For the measurement in CH3CN: The samples were prepared in an air-saturated CH3CN solution containing the complex with an absorbance of 0.1 at the irradiation wavelength, N,N-dimethyl-4-nitrosoaniline aniline (RNO, 24 μM) and imidazole (12 mM). For the measurement in PBS buffer: The samples were prepared in an air-saturated PBS solution containing the complex with an absorbance of 0.1 at the irradiation wavelength, N,N-dimethyl-4-nitrosoaniline aniline (RNO, 20 μM) and histidine (10 mM). The samples were irradiated on 96 well plates with an Atlas Photonics LUMOS BIO irradiator for different times. The absorbance of the samples was measured during these time intervals with a SpectraMax M2 Microplate Reader (Molecular Devices). The difference in absorbance (A0-A) at 420 nm for the CH3CN solution or at 440 nm a PBS buffer solution was calculated and plotted against the irradiation times. From the plot the slope of the linear regression was calculated as well as the absorbance correction factor determined. The singlet oxygen quantum yields were calculated using the same formulas as used for the direct evaluation.
as §4

[5] = light 480 nm, 10 min, 3.21 J cm^−2, read-out: IC50 Light
[6] = RPE-1, dark, read-out: IC50 Dark
[7] = RPE-1, light 480 nm, 10 min, 3.21 J cm^−2, read-out: IC50 Light

| Molecule | IC50 ([1]; dark, read-out: IC50 Dark) | IC50 [1, 5] | Singlet oxygen quantum yield Φ(1O2), CH3CN Direct [2] | Singlet oxygen quantum yield Φ(1O2), D2O Direct (not determinable) [2] | IC50 [3, 6] | IC50 [3, 7] | Singlet oxygen quantum yield Φ(1O2), CH3CN Indirect [4] | Singlet oxygen quantum yield Φ(1O2), PBS indirect [4] | Singlet oxygen quantum yield Φ(1O2), D2O Direct [2] | PI (IC50 in the dark/IC50 upon light irradiation) ([1]; 10 min) | PI (IC50 in the dark/IC50 upon light irradiation) ([3]; 10 min) |
| --- | --- | --- | --- | --- | --- | --- | --- | --- | --- | --- | --- |
| ((E,E′)-4,4′-Bis(N,N′-dimethylaminovinyl)-2,2′-bipyridine)bis(1,10-phenanthroline)ruthenium(II) hexafluorophosphate [Compound 5] | > 100 µM | > 100 µM | 0.24 | n.d. (n.d. = not determinable, Φ(^1O2) < 0.20) | > 100 µM | > 100 µM | 0.30 | 0.21 |  |  |  |
| Cc1ccnc(-c2cc(C)ccn2)c1.F[P-](F)(F)(F)(F)F.F[P-](F)(F)(F)(F)F.[Ru].c1cnc2c(c1)ccc1cccnc12.c1cnc2c(c1)ccc1cccnc12 [Compound 2, (4,4′-Dimethyl-2,2′-bipyridine)bis(1,10-phenanthroline)ruthenium(II)hexafluorophosphate] | > 100 µM | > 100 µM | 0.69 |  | > 100 µM | > 100 µM | 0.53 | 0.34 | 0.31 |  |  |
| ((E,E′)-4,4′-Bis(N,N′-dimethylaminovinyl)-2,2′-bipyridine)bis(4,7-diphenyl-1,10-phenanthroline)ruthenium(II) hexafluorophosphate [Compound 7] | > 100 µM | 15.2 ± 1.29 µM | 0.22 | n.d. (n.d. = not determinable, Φ(^1O2) < 0.20) | > 100 µM | 8.95 ± 0.5 µM | 0.35 | 0.07 |  | >6.5 | >11.2 |
| (4,4′-Dibromo-2,2′-bipyridine)bis(1,10-phenanthroline)ruthenium(II) hexafluorophosphate [Compound 3] | > 100 µM | > 100 µM | 0.55 | n.d. (n.d. = not determinable, Φ(^1O2) < 0.20) | > 100 µM | > 100 µM | 0.56 | 0.16 | not detectable |  |  |
| (2,2′-bipyridine-4,4′-carboxamide)bis(1,10-phenanthroline)ruthenium(II) hexafluorophosphate [Compound 4] | > 100 µM | > 100 µM | 0.62 |  | > 100 µM | > 100 µM | 0.59 | 0.26 | 0.25 |  |  |
| F[P-](F)(F)(F)(F)F.F[P-](F)(F)(F)(F)F.[Ru+2].c1ccc(-c2ccccn2)nc1.c1cnc2c(c1)ccc1cccnc12.c1cnc2c(c1)ccc1cccnc12 [Compound 1, (Bipyridine)bis(1,10-phenanthroline)ruthenium(II)hexafluorophosphate] | > 100 µM | > 100 µM | 0.57 |  | > 100 µM | > 100 µM | 0.54 | 0.46 | 0.27 |  |  |
| (4,4′-Dimethyl-2,2′-bipyridine)bis(4,7-diphenyl-1,10-phenanthroline)ruthenium(II) hexafluorophosphate [Compound 6] | 13.6 ± 1.3 µM | 0.61 ± 0.06 µM | 0.61 | n.d. (n.d. = not determinable, Φ(^1O2) < 0.20) | 28.8 ± 0.94 µM | 0.825 ± 0.03 µM | 0.63 | 0.03 | not detectable | 22.2 | 34.9 |
